From ChEMBL document CHEMBL4190378, “Synthesis and evaluation of new 2-chloro-4-aminopyrimidine and 2,6-dimethyl-4-aminopyrimidine derivatives as tubulin polymerization inhibitors” (Bioorg Med Chem Lett, 2018)
Active and inactive are the calls of the source. No cut-off for these calls is given here.

Columns and labels:
HeLa [1] = assay: Induction of apoptosis in human HeLa cells assessed as viable cells level at 50 nM incubated for 72 hrs by Annexin-V/FITC and propidium iodide staining based flow cytometry (reference value: 99.72%); assay type: functional
HeLa [2] = assay: Induction of apoptosis in human HeLa cells assessed as early apoptotic cells level at 500 nM incubated for 72 hrs by Annexin-V/FITC and propidium iodide staining based flow cytometry (reference value: 0.16%); assay type: functional
HeLa [3] = assay: Inhibition of tubulin polymerization in human HeLa cells assessed as morphological changes by measuring microtubule organisation derangement at 0.05 uM incubated for 24 hrs by laser scanning confocal microscopy; assay type: functional, cell-based
HeLa [4] = assay: Induction of apoptosis in human HeLa cells assessed as late apoptotic cells level at 100 nM incubated for 72 hrs by Annexin-V/FITC and propidium iodide staining based flow cytometry (reference value: 0.02%); assay type: functional
HeLa [5] = assay: Inhibition of tubulin polymerization in human HeLa cells assessed as morphological changes by measuring narrowing of nucleus at 0.5 uM incubated for 24 hrs by laser scanning confocal microscopy; assay type: functional, cell-based
HeLa [6] = assay: Induction of cell cycle arrest in human HeLa cells assessed as accumulation at subG1 phase at 500 nM incubated for 24 hrs by propidium iodide staining based flow cytometry; assay type: functional
HeLa [7] = assay: Induction of cell cycle arrest in human HeLa cells assessed as accumulation at G2/M phase at 500 nM incubated for 24 hrs by propidium iodide staining based flow cytometry; assay type: functional
HeLa [8] = assay: Induction of mitochondrial transmembrane potential loss in human HeLa cells at 100 nM incubated for 24 hrs by JC1 staining based fluorescence microscopy; assay type: functional, cell-based
HeLa [9] = assay: Induction of cell cycle arrest in human HeLa cells assessed as induction of disappearance of G2/M phase at 500 nM incubated for 48 hrs by propidium iodide staining based flow cytometry; assay type: functional
HeLa [10] = assay: Induction of apoptosis in human HeLa cells assessed as early apoptotic cells level at 50 nM incubated for 48 hrs by Annexin-V/FITC and propidium iodide staining based flow cytometry (reference value: 0.16%); assay type: functional
HeLa [11] = assay: Induction of apoptosis in human HeLa cells assessed as early apoptotic cells level at 100 nM incubated for 72 hrs by Annexin-V/FITC and propidium iodide staining based flow cytometry (reference value: 0.16%); assay type: functional
HeLa [12] = assay: Induction of mitochondrial transmembrane potential loss in human HeLa cells assessed as JC1 dye aggregates level at 100 nM incubated for 24 hrs by JC1 staining based flow cytometry (reference value: 95.85%); assay type: functional
HeLa [13] = assay: Inhibition of tubulin polymerization in human HeLa cells assessed as morphological changes by measuring spindle microtubule dis-organisation at 0.5 uM incubated for 24 hrs by laser scanning confocal microscopy; assay type: functional, cell-based
HeLa [14] = assay: Induction of apoptosis in human HeLa cells assessed as late apoptotic cells level at 500 nM incubated for 72 hrs by Annexin-V/FITC and propidium iodide staining based flow cytometry (reference value: 0.02%); assay type: functional
HeLa [15] = assay: Induction of mitochondrial transmembrane potential loss in human HeLa cells assessed as JC1 dye aggregates level at 50 nM incubated for 24 hrs by JC1 staining based flow cytometry (reference value: 95.85%); assay type: functional
HeLa [16] = assay: Induction of apoptosis in human HeLa cells assessed as late apoptotic cells level at 50 nM incubated for 48 hrs by Annexin-V/FITC and propidium iodide staining based flow cytometry (reference value: 0.02%); assay type: functional
HeLa [17] = assay: Induction of apoptosis in human HeLa cells assessed as necrotic cells level at 50 nM incubated for 48 hrs by Annexin-V/FITC and propidium iodide staining based flow cytometry (reference value: 0.03%); assay type: functional
HeLa [18] = assay: Antiproliferative activity against human HeLa cells incubated for 48 hrs by MTT assay; assay type: functional, cell-based
HeLa [19] = assay: Induction of apoptosis in human HeLa cells assessed as early apoptotic cells level at 100 nM incubated for 48 hrs by Annexin-V/FITC and propidium iodide staining based flow cytometry (reference value: 0.16%); assay type: functional
HeLa [20] = assay: Induction of apoptosis in human HeLa cells assessed as late apoptotic cells level at 500 nM incubated for 48 hrs by Annexin-V/FITC and propidium iodide staining based flow cytometry (reference value: 0.02%); assay type: functional
HeLa [21] = assay: Induction of apoptosis in human HeLa cells assessed as necrotic cells level at 50 nM incubated for 72 hrs by Annexin-V/FITC and propidium iodide staining based flow cytometry (reference value: 0.03%); assay type: functional
HeLa [22] = assay: Induction of apoptosis in human HeLa cells assessed as early apoptotic cells level at 50 nM incubated for 72 hrs by Annexin-V/FITC and propidium iodide staining based flow cytometry (reference value: 0.16%); assay type: functional
HeLa [23] = assay: Induction of cell cycle arrest in human HeLa cells assessed as induction of disappearance of G2/M phase at 100 nM incubated for 48 hrs by propidium iodide staining based flow cytometry; assay type: functional
[24] = Inhibition of porcine brain tubulin polymerization measured every 60 secs for 90 mins by DAPI dye based fluorescence assay; parameters: species or system Sus scrofa
HeLa [25] = assay: Induction of cell cycle arrest in human HeLa cells assessed as accumulation at subG1 phase at 100 nM incubated for 24 hrs by propidium iodide staining based flow cytometry; assay type: functional
MDA-MB-231 = assay: Antiproliferative activity against human MDA-MB-231 cells incubated for 48 hrs by MTT assay; assay type: functional, cell-based; details: MDA-MB-231, 48 h
HeLa [26] = assay: Induction of mitochondrial transmembrane potential loss in human HeLa cells assessed as JC1 dye aggregates level at 500 nM incubated for 24 hrs by JC1 staining based flow cytometry (reference value: 95.85%); assay type: functional
HeLa [27] = assay: Induction of apoptosis in human HeLa cells assessed as necrotic cells level at 100 nM incubated for 48 hrs by Annexin-V/FITC and propidium iodide staining based flow cytometry (reference value: 0.03%); assay type: functional
HeLa [28] = assay: Induction of mitochondrial transmembrane potential loss in human HeLa cells assessed as JC1 dye monomers level at 500 nM incubated for 24 hrs by JC1 staining based flow cytometry (reference value: 4.12%); assay type: functional
HeLa [29] = assay: Induction of cell cycle arrest in human HeLa cells assessed as accumulation at G2/M phase at 100 nM incubated for 24 hrs by propidium iodide staining based flow cytometry; assay type: functional
HeLa [30] = assay: Induction of apoptosis in human HeLa cells assessed as necrotic cells level at 500 nM incubated for 72 hrs by Annexin-V/FITC and propidium iodide staining based flow cytometry (reference value: 0.03%); assay type: functional
HeLa [31] = assay: Induction of cell cycle arrest in human HeLa cells assessed as tetraploid peaks level at 50 nM incubated for 48 hrs by propidium iodide staining based flow cytometry; assay type: functional
HeLa [32] = assay: Induction of apoptosis in human HeLa cells assessed as viable cells level at 100 nM incubated for 48 hrs by Annexin-V/FITC and propidium iodide staining based flow cytometry (reference value: 99.72%); assay type: functional
HeLa [33] = assay: Induction of apoptosis in human HeLa cells assessed as necrotic cells level at 100 nM incubated for 72 hrs by Annexin-V/FITC and propidium iodide staining based flow cytometry (reference value: 0.03%); assay type: functional
HCT-116 = assay: Antiproliferative activity against human HCT116 cells incubated for 48 hrs by MTT assay; assay type: functional, cell-based; details: HCT-116, 48 h
HeLa [34] = assay: Induction of mitochondrial transmembrane potential loss in human HeLa cells at 50 nM incubated for 24 hrs by JC1 staining based fluorescence microscopy; assay type: functional, cell-based

With COc1ccc(N(C)c2cc(C)nc(C)n2)cc1O the Activity (HeLa [1]) was 82.18%, the Activity (HeLa [2]) was 66.08% and the inhibition (HeLa [3]) was “Active”. For the same compound, the Activity (HeLa [4]) was 11.63%, the inhibition (HeLa [5]) was “Active” and the Activity (HeLa [6]) was “Active”. For the same compound, the Activity (HeLa [7]) was 55.6%, the Activity (HeLa [8]) was “Active” and the Activity (HeLa [9]) was “Active”. The Activity (HeLa [10]) was 10.44%, the Activity (HeLa [11]) was 21.09% and the Activity (HeLa [12]) was 70.71%. The inhibition (HeLa [13]) was “Active”, the Activity (HeLa [14]) was 18.61% and the Activity (HeLa [15]) was 88.35%. The Activity (HeLa [16]) was 0%, the Activity (HeLa [17]) was 0.01% and the IC50 (HeLa [18]) was 93 nM. It also gave an Activity (HeLa [19]) of 23.16%, an Activity (HeLa [20]) of 0.09% and an Activity (HeLa [21]) of 0.6%. For the same compound, the Activity (HeLa [22]) was 9.78%, the Activity (HeLa [23]) was “Active” and the IC50 [24] was 5810 nM. For the same compound, the Activity (HeLa [25]) was “Active”, the IC50 (MDA-MB-231) was 1100 nM and the Activity (HeLa [26]) was 51.28%. For the same compound, the Activity (HeLa [27]) was 0.07%, the Activity (HeLa [28]) was 48.26% and the Activity (HeLa [29]) was 39.6%. The Activity (HeLa [30]) was 3.54%, the Activity (HeLa [31]) was 38.7% and the Activity (HeLa [32]) was 76.71%. For the same compound, the Activity (HeLa [33]) was 2.08%, the IC50 (HCT-116) was 126 nM and the Activity (HeLa [34]) was “Active”.
